Experimental data published in the CheMixHub drug solubility set.

Experiment: xn = mol fraction of the nth substance listed, in the solute-free solvent

CCOC(=O)OC1=C(c2cc(C)ccc2C)C(=O)NC12CCC(OC)CC2 (centres undefined) + CC(C)O + O
solubility (g/100 g solution)
Details	278.15 K	283.15 K	288.15 K	293.15 K	298.15 K	303.15 K	308.15 K	313.15 K	318.15 K
x2 = 0.2	0.638	0.86	1.19	1.61	2.18	2.85	3.73	4.8	6.15
x2 = 0.4	2.55	2.99	3.88	5	6.36	8.23	10.4	13.1	16.5
x2 = 0.6	3.11	3.92	5.04	6.01	7.67	9.71	12.3	15.4	19.1
x2 = 0.8	2.53	3.07	3.85	5.03	6.44	8.1	10.2	13.2	16.5

CC1CCC2C(C)C(OC(=O)CCC(=O)O)OC3OC4(C)CCC1C32OO4 (centres undefined) + CC(O)CO + O
solubility (g/100 g solution)
Details	278.15 K	283.15 K	288.15 K	293.15 K	298.15 K	303.15 K	308.15 K	313.15 K	318.15 K
x2 = 0.02567	0.0421	0.056	0.0717	0.092	0.114	0.145	0.181	0.223	0.275
x2 = 0.05599	0.0843	0.11	0.139	0.176	0.215	0.27	0.333	0.404	0.492
x2 = 0.0921	0.155	0.201	0.25	0.313	0.377	0.466	0.568	0.682	0.819
x2 = 0.1363	0.259	0.33	0.408	0.503	0.606	0.737	0.888	1.05	1.25
x2 = 0.1915	0.384	0.484	0.593	0.724	0.853	1.03	1.23	1.45	1.71
x2 = 0.2622	0.501	0.635	0.77	0.932	1.1	1.3	1.55	1.81	2.09
x2 = 0.3554	0.579	0.73	0.88	1.06	1.24	1.46	1.72	2	2.3
x2 = 0.4866	0.602	0.746	0.906	1.08	1.27	1.48	1.75	2.01	2.31
x2 = 0.6826	0.571	0.704	0.845	1.02	1.19	1.38	1.62	1.86	2.12

c1ccc(-c2ccc(C(c3ccccc3)n3ccnc3)cc2)cc1 (centres undefined) + CC(O)CO + O
solubility (g/100 g solution)
Details	278.15 K	283.15 K	288.15 K	293.15 K	298.15 K	303.15 K	308.15 K	313.15 K	318.15 K
x2 = 0.02564	0.0702	0.0956	0.129	0.168	0.2	0.272	0.357	0.437	0.544
x2 = 0.0559	0.223	0.3	0.398	0.511	0.608	0.812	1.05	1.27	1.56
x2 = 0.09214	0.441	0.588	0.777	0.991	1.18	1.56	2	2.41	2.96
x2 = 0.1364	0.633	0.843	1.11	1.42	1.71	2.23	2.85	3.45	4.22
x2 = 0.1915	0.747	0.998	1.32	1.73	2.16	2.74	3.47	4.21	5.14
x2 = 0.2621	0.794	1.06	1.41	1.82	2.24	2.91	3.71	4.55	5.62
x2 = 0.3559	0.86	1.14	1.5	1.93	2.42	3.13	4	4.89	5.95
x2 = 0.4865	0.859	1.2	1.6	2.03	2.59	3.24	3.98	4.95	6.18
x2 = 0.6806	0.776	1.06	1.42	1.94	2.58	3.33	4.25	5.2	6.23

CC(S)C(=O)NCC(=O)O (centres undefined) + CCCCO + CC#N
solubility (g/100 g solution)
Details	273.15 K	278.15 K	283.15 K	288.15 K	293.15 K	298.15 K	303.15 K	308.15 K	313.15 K	318.15 K
x2 = 0.1216	3.87	4.43	4.99	5.57	6.21	6.84	7.49	8.19	8.94	9.75
x2 = 0.2697	4.29	4.96	5.69	6.46	7.28	8.08	8.92	9.79	10.7	11.9
x2 = 0.4538	4.43	4.94	5.58	6.3	7.26	8.29	9.41	10.6	11.8	13
x2 = 0.689	4.42	5.29	6.26	7.32	8.38	9.51	10.7	12	13.3	14.7

CC(S)C(=O)NCC(=O)O (centres undefined) + CCCCO + Cc1ccccc1
solubility (g/100 g solution)
Details	273.15 K	278.15 K	283.15 K	288.15 K	293.15 K	298.15 K	303.15 K	308.15 K	313.15 K	318.15 K
x2 = 0.2371	0.947	1.12	1.28	1.47	1.67	1.87	2.08	2.33	2.6	2.92
x2 = 0.4531	2.23	2.53	2.88	3.29	3.76	4.25	4.73	5.25	5.84	6.48
x2 = 0.6509	2.84	3.41	4.01	4.7	5.45	6.25	7.12	7.99	8.88	10
x2 = 0.8325	3.57	4.44	5.37	6.33	7.31	8.43	9.63	11	12.3	13.9

c1ccc(-c2ccc(C(c3ccccc3)n3ccnc3)cc2)cc1 (centres undefined) + CCCO + O
solubility (g/100 g solution)
Details	278.15 K	283.15 K	288.15 K	293.15 K	298.15 K	303.15 K	308.15 K	313.15 K	318.15 K
x2 = 0.03225	0.0336	0.0464	0.0633	0.0834	0.101	0.139	0.185	0.229	0.288
x2 = 0.06974	0.0833	0.114	0.154	0.202	0.244	0.332	0.436	0.54	0.674
x2 = 0.1139	0.174	0.22	0.295	0.402	0.547	0.719	0.918	1.13	1.35
x2 = 0.1666	0.308	0.417	0.558	0.724	0.884	1.18	1.52	1.9	2.34
x2 = 0.2307	0.467	0.573	0.784	1.06	1.3	1.74	2.22	2.82	3.53
x2 = 0.3103	0.618	0.836	1.12	1.45	1.81	2.37	3.04	3.83	4.72
x2 = 0.4117	0.601	0.91	1.27	1.77	2.4	3.06	3.87	4.77	5.68
x2 = 0.5454	0.774	1.05	1.42	1.86	2.37	3.09	3.98	5.09	6.3
x2 = 0.7297	0.768	1.11	1.56	2.08	2.68	3.46	4.32	5.36	6.55
